The results in this text go back to patent US10377770B2 (Novartis AG, priority 2015, dated 2019).

The test concerns the target C-Raf FL (full length CRAF with Y340E and Y341E activating mutations, co-expressed with h14-3-3 zeta) (Homo sapiens (Human), UniProt P04049, Y340E/Y341E). Description: In vitro Raf activity determination, AlphaScreen p-MEK readout, c-Raf (C-Raf FL). Format: biochemical. Particulars: c-Raf approximately 4 nM, ATP 1 μM, pre-incubation 60 minutes, reaction 1 hour. In outline:
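Phosphorylation of kinase-dead biotinylated MEK1 (~10 nM) by C-Raf FL (~4 nM) read by AlphaScreen luminescence with anti-phospho-MEK1/2 after EDTA stop. ATP was 1 μM, with a 1 h reaction at room temperature. Compounds were pre-incubated with enzyme and substrate for 60 min in Tris/MgCl2 buffer, pH 7.5.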
(In general: Bead proximity is the source of the signal in Alpha formats.)

Molecules are shown by their SMILES.

C-Raf FL (full length CRAF with Y340E and Y341E activating mutations, co-expressed with h14-3-3 zeta), sequence (P04049 whole entry Y340E/Y341E): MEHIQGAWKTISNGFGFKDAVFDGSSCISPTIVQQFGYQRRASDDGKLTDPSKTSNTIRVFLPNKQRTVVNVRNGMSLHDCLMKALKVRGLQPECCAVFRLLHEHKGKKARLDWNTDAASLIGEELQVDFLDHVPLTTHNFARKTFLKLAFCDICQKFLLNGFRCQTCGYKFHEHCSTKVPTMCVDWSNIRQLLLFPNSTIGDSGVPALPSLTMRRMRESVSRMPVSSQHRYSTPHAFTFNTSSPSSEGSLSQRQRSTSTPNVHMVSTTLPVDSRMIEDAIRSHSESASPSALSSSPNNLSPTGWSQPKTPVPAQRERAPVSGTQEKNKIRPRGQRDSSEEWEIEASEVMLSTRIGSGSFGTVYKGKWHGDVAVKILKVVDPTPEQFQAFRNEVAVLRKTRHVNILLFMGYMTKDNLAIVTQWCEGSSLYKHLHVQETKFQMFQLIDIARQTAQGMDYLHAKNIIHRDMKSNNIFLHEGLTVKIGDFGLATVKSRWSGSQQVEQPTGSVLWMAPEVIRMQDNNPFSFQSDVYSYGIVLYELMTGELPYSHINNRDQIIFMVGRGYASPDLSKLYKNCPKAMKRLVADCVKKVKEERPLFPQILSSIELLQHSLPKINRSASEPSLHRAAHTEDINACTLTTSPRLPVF
C-Raf FL (full length CRAF with Y340E and Y341E activating mutations, co-expressed with h14-3-3 zeta), sequence (P63104 whole entry partner): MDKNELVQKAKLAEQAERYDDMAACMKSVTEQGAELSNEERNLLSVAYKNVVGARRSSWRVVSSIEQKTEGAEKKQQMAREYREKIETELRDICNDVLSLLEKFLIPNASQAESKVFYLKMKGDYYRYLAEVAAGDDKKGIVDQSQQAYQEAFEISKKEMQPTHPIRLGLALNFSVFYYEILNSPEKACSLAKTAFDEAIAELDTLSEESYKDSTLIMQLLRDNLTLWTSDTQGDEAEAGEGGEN

Broadly, the IC50 is the concentration that gives 50% inhibition. Lower therefore signals greater potency. `Cc1ccc(NC(=O)c2ccnc(C(F)(F)F)c2)cc1-c1ccc2c(c1)N1CCOCC1C(CS(C)(=O)=O)C2` (racemic) [Example 363, (rac)-N-(4-methyl-3-(5-((methylsulfonyl)methyl)-1,2,4,4a,5,6-hexahydro-[1,4]oxazino[4,3-a]quinolin-9-yl)phenyl)-2-(trifluoromethyl)isonicotinamide] yielded an IC50 of 0.1 nM.

In turn, `Cc1ncc(NC(=O)c2cccc(C(F)(F)F)c2)cc1-c1ccc2c(c1)N1CCOCC1C(CS(C)(=O)=O)C2` (racemic) [Example 364, (rac)-N-(6-methyl-5-(5-((methylsulfonyl)methyl)-1,2,4,4a,5,6-hexahydro-[1,4]oxazino[4,3-a]quinolin-9-yl)pyridin-3-yl)-3-(trifluoromethyl)benzamide] registered an IC50 of 0.8 nM.

`Cc1ccc(NC(=O)c2ccnc(C(C)(C)F)c2)cc1-c1ccc2c(c1)N1CCOCC1C(CS(C)(=O)=O)C2` (racemic) [Example 365, (rac)-2-(2-fluoropropan-2-yl)-N-(4-methyl-3-(5-((methylsulfonyl)methyl)-1,2,4,4a,5,6-hexahydro-[1,4]oxazino[4,3-a]quinolin-9-yl)phenyl)isonicotinamide]: the IC50 amounted to 0.2 nM.

Regarding `Cc1ccc(NC(=O)c2ccnc(C(C)(F)F)c2)cc1-c1ccc2c(c1)N1CCOC[C@]1(C)C[C@@H]2O` (relative stereo) [Example 26], the IC50 was 0.014 nM.

In turn, `Cc1ccc(NC(=O)c2ccnc(C(C)(F)F)c2)cc1-c1cnc2c(c1)N1CCOC[C@H]1[C@H](F)[C@H]2O` (relative stereo) [Example 140, rac-2-(1,1-difluoroethyl)-N-(3-((4aS*,5S*,6S*)-5-fluoro-6-hydroxy-1,2,4,4a,5,6-hexahydro-[1,4]oxazino[4,3-a][1,5]naphthyridin-9-yl)-4-methylphenyl)isonicotinamide] displayed an IC50 of 0.0085 nM.

As for `CCN1C(=O)[C@@H]2COCC[C@@]2(C)c2cc(-c3cc(NC(=O)c4ccnc(C(F)(F)F)c4)ccc3C)cnc21` (relative stereo) [Example 341, N-(3-((4a,10b-trans)-6-ethyl-10b-methyl-5-oxo-2,4,4a,5,6,10b-hexahydro-1H-pyrano[3,4-c][1,8]naphthyridin-9-yl)-4-methylphenyl)-2-(trifluoromethyl)isonicotinamide], the IC50 came out at 0.6 nM.

In the case of `CCN1C(=O)[C@@H]2COCC[C@@]2(C)c2cc(-c3cc(NC(=O)c4ccnc(C(F)(F)F)c4)ccc3C)cnc21` (relative stereo) [Example 342, N-(3-((4a,10b-trans)-6-ethyl-10b-methyl-5-oxo-2,4,4a,5,6,10b-hexahydro-1H-pyrano[3,4-c][1,8]naphthyridin-9-yl)-4-methylphenyl)-2-(trifluoromethyl)isonicotinamide], inhibition was half-maximal at 0.1 nM (IC50).

Compound `Cc1ccc(NC(=O)c2ccnc(C(C)(F)F)c2)cc1-c1cnc2c(c1)[C@@]1(C)CCOCC[C@@H]1C(=O)N2CCO` (relative stereo) [Example 351, 2-(1,1-difluoroethyl)-N-((5a,11b-trans)-3-(7-(2-hydroxyethyl)-11b-methyl-6-oxo-1,2,4,5,5a,6,7,11b-octahydrooxepino[4,5-c][1,8]naphthyridin-10-yl)-4-methylphenyl) isonicotinamide] displayed an IC50 of 1.1 nM.

In the case of `Cc1ccc(NC(=O)c2ccnc(C(C)(F)F)c2)cc1-c1cnc2c(c1)[C@@]1(C)CCOCC[C@@H]1C(=O)N2CCO` (relative stereo) [Example 352, 2-(1,1-difluoroethyl)-N-((5a,11b-trans)-3-(7-(2-hydroxyethyl)-11b-methyl-6-oxo-1,2,4,5,5a,6,7,11b-octahydrooxepino[4,5-c][1,8]naphthyridin-10-yl)-4-methylphenyl)isonicotinamide], the IC50 is 0.1 nM.

Turning to `Cc1ccc(NC(=O)c2ccnc(C(C)(F)F)c2)cc1-c1ccc2c(c1)N1CCOC[C@@H]1C[C@@H]2O` (single isomer, unassigned) [Example 14], the midpoint of inhibition, the IC50, lay at 0.034 nM.

`Cc1ccc(NC(=O)c2ccnc(C(C)(F)F)c2)cc1-c1ccc2c(c1)N1CCOC[C@H]1C[C@@H]2O` (single isomer, unassigned) [Example 19]: the IC50 was 0.019 nM.

For `Cc1ccc(NC(=O)c2ccnc(C(C)(F)F)c2)cc1-c1ccc2c(c1)N1CCOC[C@@H]1C[C@H]2O` (single isomer, unassigned) [Example 20], half-maximal inhibition (IC50) required 0.025 nM.

On to `Cc1ccc(NC(=O)c2ccnc(C(C)(F)F)c2)cc1-c1ccc2c(c1)N1CCOC[C@H]1C(CO)(CO)C2` (single isomer, unassigned) [Example 52], for which half-maximal inhibition (IC50) required 0.16 nM.

The compound `Cc1ccc(NC(=O)c2ccnc(C(C)(F)F)c2)cc1-c1ccc2c(c1)N1CCOCC1C(F)(CO)C2` (single isomer, unassigned) [Example 82, 2-(1,1-difluoroethyl)-N-(3-(5-fluoro-5-(hydroxymethyl)-1,2,4,4a,5,6-hexahydro-[1,4]oxazino[4,3-a]quinolin-9-yl)-4-methylphenyl)isonicotinamide] displayed an IC50 of 0.17 nM.

In the case of `Cc1ccc(NC(=O)c2ccnc(C(C)(F)F)c2)cc1-c1ccc2c(c1)N1CCOCC1C(F)(CO)C2` (single isomer, unassigned) [Example 83, 2-(1,1-difluoroethyl)-N-(3-(5-fluoro-5-(hydroxymethyl)-1,2,4,4a,5,6-hexahydro-[1,4]oxazino[4,3-a]quinolin-9-yl)-4-methylphenyl)isonicotinamide], the IC50 came to 0.85 nM.

The compound `Cc1ccc(NC(=O)c2ccnc(C(F)(F)F)c2)cc1-c1cnc2c(c1)N1CCOCC1C(C)(C)C2O` (single isomer, unassigned) [Example 334, N-(3-(6-hydroxy-5,5-dimethyl-1,2,4,4a,5,6-hexahydro-[1,4]oxazino[4,3-a][1,5]naphthyridin-9-yl)-4-methylphenyl)-2-(trifluoromethyl)isonicotinamide] returned an IC50 of 0.4 nM.

In turn, `Cc1ccc(NC(=O)c2ccnc(C(F)(F)F)c2F)cc1-c1cnc2c(c1)C1(C)CCOCCC1C(=O)N2CCO` (single isomer, unassigned) [Example 354, 3-fluoro-N-(3-((5a,11b-trans)-7-(2-hydroxyethyl)-11b-methyl-6-oxo-1,2,4,5,5a,6,7,11b-octahydrooxepino[4,5-c][1,8]naphthyridin-10-yl)-4-methylphenyl)-2-(trifluoromethyl)isonicotinamide] returned an IC50 of 0.3 nM.

`Cc1ccc(NC(=O)c2ccnc(C(F)(F)F)c2)cc1-c1cnc2c(c1)C1(C)CCOCCC1C(=O)N2CCO` (single isomer, unassigned) [Example 355, N-(3-((5a,11b-trans)-7-(2-hydroxyethyl)-11b-methyl-6-oxo-1,2,4,5,5a,6,7,11b-octahydrooxepino[4,5-c][1,8]naphthyridin-10-yl)-4-methylphenyl)-2-(trifluoromethyl)isonicotinamide] came in with an IC50 of 1.2 nM.

Turning to `Cc1ccc(NC(=O)c2ccnc(C(F)(F)F)c2)cc1-c1cnc2c(c1)C1(C)CCOCCC1C(=O)N2CCO` (single isomer, unassigned) [Example 356, N-(3-((5a,11b-trans)-7-(2-hydroxyethyl)-11b-methyl-6-oxo-1,2,4,5,5a,6,7,11b-octahydrooxepino[4,5-c][1,8]naphthyridin-10-yl)-4-methylphenyl)-2-(trifluoromethyl)isonicotinamide], the midpoint of inhibition, the IC50, lay at 0.1 nM.

On to `Cc1ccc(NC(=O)c2cncc(C(F)(F)F)c2)cc1-c1cnc2c(c1)C1(C)CCOCCC1C(=O)N2CCO` (single isomer, unassigned) [Example 358, N-(3-((5a,11b-trans)-7-(2-hydroxyethyl)-11b-methyl-6-oxo-1,2,4,5,5a,6,7,11b-octahydrooxepino[4,5-c][1,8]naphthyridin-10-yl)-4-methylphenyl)-5-(trifluoromethyl)nicotinamide], for which the IC50 came to 0.1 nM.

On to `Cc1ncc(NC(=O)c2cccc(C(F)(F)F)c2)cc1-c1cnc2c(c1)C1(C)CCOCCC1C(=O)N2CCO` (single isomer, unassigned) [Example 359, N-(5-((5a,11b-trans)-7-(2-hydroxyethyl)-11b-methyl-6-oxo-1,2,4,5,5 a,6,7,11b-octahydrooxepino[4,5-c][1,8]naphthyridin-10-yl)-6-methylpyridin-3-yl)-3-(trifluoromethyl)benzamide], for which it took 0.3 nM to reach half-maximal inhibition (IC50).

Compound `CCN1C(=O)C2COCCN2c2cc(-c3cc(NC(=O)c4ccnc(C(F)(F)F)c4)ccc3C)cnc21` (stereo in doubt) [Example 114, (S)-N-(3-(6-Ethyl-5-oxo-1,2,4,4a,5,6-hexahydropyrido[2′,3′:5,6]pyrazino[2,1-c][1,4]oxazin-9-yl)-4-methylphenyl)-2-(trifluoromethyl)isonicotinamide] registered an IC50 of 0.07 nM.

Turning to `CCN1C(=O)C2COCCN2c2cc(-c3cc(NC(=O)c4ccnc(C(F)(F)F)c4)ccc3C)cnc21` (stereo in doubt) [Example 115, (R)-N-(3-(6-ethyl-5-oxo-1,2,4,4a,5,6-hexahydropyrido2′,3′:5,6]pyrazino[2,1-c][1,4]oxazin-9-yl)-4-methylphenyl)-2-(trifluoromethyl)isonicotinamide], the half-maximal inhibitory concentration (IC50) came out at 0.011 nM.

Turning to `CCN1C(=O)C2[C@H]3COC[C@H]3[C@@H]2c2cc(-c3cc(NC(=O)c4ccnc(C(F)(F)F)c4)ccc3C)cnc21` (stereo in doubt) [Example 268, N-(3-((6aS, 6bS, 9aS, 9bS)-5-ethyl-6-oxo-5,6,6a,6b,7,9,9a,9b-octahydrofuro[3′,4′: 3,4]cyclobuta[1,2-c][1,8]naphthyridin-2-yl)-4-methylphenyl)-2-(trifluoromethyl) isonicotinamide], the IC50 turned out to be 0.3 nM.

As for `CCN1C(=O)[C@@H]2COCC[C@@]2(C)c2cc(-c3cc(NC(=O)c4ccnc(C(C)(F)F)c4)ccc3C)cnc21` (stereo in doubt) [Example 343, 2-(1,1-difluoroethyl)-N-(3-((4a,10b-trans)6-ethyl-10b-methyl-5-oxo-2,4,4a,5,6,10b-hexahydro-1H-pyrano[3,4-c][1,8]naphthyridin-9-yl)-4-methylphenyl)isonicotinamide], half-maximal inhibition (IC50) required 0.2 nM.
